The values that follow come from patent publication EP4667458A1 (Kanaph Therapeutics Inc., priority 2023, dated 2024).

pIC50: −log10 of the molar value.

This assay has as its target T1, KRAS^G12C::SOS1 (Homo sapiens, UniProt Q07889).
T1 sequence (Q07889 1-1333): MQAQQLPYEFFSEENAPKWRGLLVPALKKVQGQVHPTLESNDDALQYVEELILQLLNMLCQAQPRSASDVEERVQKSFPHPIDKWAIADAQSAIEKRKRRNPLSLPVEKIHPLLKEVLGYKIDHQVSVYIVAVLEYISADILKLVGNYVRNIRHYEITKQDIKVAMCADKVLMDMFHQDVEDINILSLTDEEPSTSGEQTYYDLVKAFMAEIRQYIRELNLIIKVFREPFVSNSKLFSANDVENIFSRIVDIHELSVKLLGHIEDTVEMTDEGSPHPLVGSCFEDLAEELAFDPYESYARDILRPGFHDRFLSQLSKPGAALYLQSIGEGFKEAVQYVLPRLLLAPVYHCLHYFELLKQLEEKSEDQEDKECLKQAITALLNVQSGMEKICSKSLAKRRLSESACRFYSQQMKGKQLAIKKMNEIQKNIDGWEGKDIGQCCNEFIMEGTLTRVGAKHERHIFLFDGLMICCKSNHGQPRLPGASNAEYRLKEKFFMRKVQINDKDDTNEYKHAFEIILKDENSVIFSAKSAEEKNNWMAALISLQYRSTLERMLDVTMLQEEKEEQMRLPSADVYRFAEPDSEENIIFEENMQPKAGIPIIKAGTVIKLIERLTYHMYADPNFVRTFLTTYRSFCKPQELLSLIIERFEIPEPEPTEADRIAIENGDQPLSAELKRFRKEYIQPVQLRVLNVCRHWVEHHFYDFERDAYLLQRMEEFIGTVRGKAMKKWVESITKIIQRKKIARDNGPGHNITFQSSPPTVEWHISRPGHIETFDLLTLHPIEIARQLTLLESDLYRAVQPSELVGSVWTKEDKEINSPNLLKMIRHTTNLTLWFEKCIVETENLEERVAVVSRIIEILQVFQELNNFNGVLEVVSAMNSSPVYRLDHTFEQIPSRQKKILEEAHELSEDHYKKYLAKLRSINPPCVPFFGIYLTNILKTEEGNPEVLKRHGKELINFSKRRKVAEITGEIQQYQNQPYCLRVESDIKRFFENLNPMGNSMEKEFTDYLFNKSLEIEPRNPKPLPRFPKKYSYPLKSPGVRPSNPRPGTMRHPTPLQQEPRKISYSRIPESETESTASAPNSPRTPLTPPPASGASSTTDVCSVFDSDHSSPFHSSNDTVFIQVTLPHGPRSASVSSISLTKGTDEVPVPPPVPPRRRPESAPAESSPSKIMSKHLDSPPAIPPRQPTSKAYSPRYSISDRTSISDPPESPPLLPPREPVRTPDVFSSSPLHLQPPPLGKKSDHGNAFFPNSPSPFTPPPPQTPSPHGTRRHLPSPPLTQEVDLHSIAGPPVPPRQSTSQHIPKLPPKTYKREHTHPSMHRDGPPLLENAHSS
Kind of assay: KRAS G12C::SOS1 protein-protein interaction (PPI) inhibition assay (HTRF binding kit).
As to `C[C@@H](NC(=O)c1ccc(=O)n(-c2ccc3cnn(C)c3c2)n1)c1cc(N)cc(C(F)(F)F)c1` [Example 236, N-[(1R)-1-[3-amino-5-(trifluoromethyl)phenyl]ethyl]-1-(1-methyl-1H-indazol-6-yl)-6-oxo-1,6-dihydropyridazine-3-carboxamide], the pIC50 is above 6.00.

In the case of `[2H]C([2H])([2H])n1nncc1-c1cccc(-n2nc(C(=O)N[C@H](C)c3cc(N)cc(C(F)(F)F)c3)ccc2=O)c1` [Example 237, N-[(1R)-1-[3-amino-5-(trifluoromethyl)phenyl]ethyl]-1-[3-(3-(trideuteriomethyl)triazol-4-yl)phenyl]-6-oxo-pyridazine-3-carboxamide], the pIC50 was above 6.00.

In turn, `C[C@@H](NC(=O)c1ccc(=O)n(-c2ccc3nnn(C)c3c2)n1)c1cc(N)cc(C(F)(F)F)c1` [Example 238, N-[(1R)-1-[3-amino-5-(trifluoromethyl)phenyl]ethyl]-1-(1-methyl-1H-1,2,3-benzotriazol-6-yl)-6-oxo-1,6-dihydropyridazine-3-carboxamide] had a pIC50 above 6.00.

On to `C[C@@H](NC(=O)c1ccc(=O)n(-c2cccc(-c3ncco3)c2)n1)c1cc(N)cc(C(F)(F)F)c1` [Example 239, N-[(1R)-1-[3-amino-5-(trifluoromethyl)phenyl]ethyl]-1-[3-(1,3-oxazol-2-yl)phenyl]-6-oxo-1,6-dihydropyridazine-3-carboxamide], for which the pIC50 is 5.00 to 6.00.

In the case of `C[C@@H](NC(=O)c1ccc(=O)n(-c2ccc3cnn(C)c3c2F)n1)c1cc(N)cc(C(F)(F)F)c1` [Example 240, N-[(1R)-1-[3-amino-5-(trifluoromethyl)phenyl]ethyl]-1-(7-fluoro-1-methyl-1H-indazol-6-yl)-6-oxo-1,6-dihydropyridazine-3-carboxamide], the pIC50 was above 6.00.

For `C[C@@H](NC(=O)c1cc(Br)c(=O)n(-c2ccccc2)n1)c1cc(N)cc(C(F)(F)F)c1` [Example 241, (R)-N-(1-(3-amino-5-(trifluoromethyl)phenyl)ethyl)-5-bromo-6-oxo-1-phenyl-1,6-dihydropyridazine-3-carboxamide], the pIC50 is above 6.00.

Molecule `COCC(F)(F)c1cccc([C@@H](C)NC(=O)c2ccc(=O)n(-c3ccccc3F)n2)c1F` [Example 242, N-[(1R)-1-[3-(1,1-difluoro-2-methoxy-ethyl)-2-fluoro-phenyl]ethyl]-1-(2-fluorophenyl)-6-oxo-pyridazine-3-carboxamide] gave a negative logarithm of the IC50 (pIC50) above 6.00.

The molecule `C[C@@H](NC(=O)c1ccc(=O)n(-c2ccccc2F)n1)c1cccc(C(F)(F)CN)c1F` [Example 243, N-[(1R)-1-[3-(2-amino-1,1-difluoro-ethyl)-2-fluoro-phenyl]ethyl]-1-(2-fluorophenyl)-6-oxo-pyridazine-3-carboxamide] gave a pIC50 above 6.00.

On to `C[C@@H](NC(=O)c1ccc(=O)n(-c2ccccc2F)n1)c1cc(N)cc(C(F)(F)F)c1F` [Example 245, N-[(1R)-1-[5-amino-2-fluoro-3-(trifluoromethyl)phenyl]ethyl]-1-(2-fluorophenyl)-6-oxo-pyridazine-3-carboxamide], for which the pIC50 was above 6.00.

In turn, `Cc1c([C@@H](C)NC(=O)c2ccc(=O)n(-c3ccccc3F)n2)cccc1C(F)(F)CO` [Example 246, N-[(1R)-1-[3-(1,1-difluoro-2-hydroxy-ethyl)-2-methyl-phenyl]ethyl]-1-(2-fluorophenyl)-6-oxo-pyridazine-3-carboxamide] showed a pIC50 above 6.00.

The molecule `C[C@@H](NC(=O)c1ccc(=O)n(-c2ccccc2OC(F)F)n1)c1cc(N)cc(C(F)(F)F)c1` [Example 247, N-[(1R)-1-[3-amino-5-(trifluoromethyl)phenyl]ethyl]-1-[2-(difluoromethoxy)phenyl]-6-oxo-pyridazine-3-carboxamide] gave a pIC50 above 6.00.

As to `C[C@@H](NC(=O)c1ccc(=O)n(-c2cccc(C(=O)OC(C)(C)C)c2)n1)c1cc(N)cc(C(F)(F)F)c1` [Example 248, Tert-butyl 3-[3-[[(1R)-1-[3-amino-5-(trifluoromethyl)phenyl]ethyl]carbamoyl]-6-oxo-pyridazin-1-yl]benzoate], the pIC50 is above 6.00.

The molecule `C[C@@H](NC(=O)c1ccc(=O)n(-c2cccc(C(=O)N3CCNCC3)c2)n1)c1cc(N)cc(C(F)(F)F)c1` [Example 250, N-[(1R)-1-[3-amino-5-(trifluoromethyl)phenyl]ethyl]-6-oxo-1-[3-(piperazine-1-carbonyl)phenyl]pyridazine-3-carboxamide] showed a pIC50 above 6.00.

Take `C[C@@H](NC(=O)c1ccc(=O)n(-c2cccc(C(=O)NCCN(C)C)c2)n1)c1cc(N)cc(C(F)(F)F)c1` [Example 251, N-[(1R)-1-[3-amino-5-(trifluoromethyl)phenyl]ethyl]-1-[3-[2-(dimethylamino)ethylcarbamoyl]phenyl]-6-oxo-pyridazine-3-carboxamide]: the pIC50 was above 6.00.

The molecule `C[C@@H](NC(=O)c1ccc(=O)n(-c2cccc(C(N)=O)c2)n1)c1cc(N)cc(C(F)(F)F)c1` [Example 252, N-[(1R)-1-[3-amino-5-(trifluoromethyl)phenyl]ethyl]-1-(3-carbamoylphenyl)-6-oxo-pyridazine-3-carboxamide] had a pIC50 above 6.00.

For `CNC(=O)c1cccc(-n2nc(C(=O)N[C@H](C)c3cc(N)cc(C(F)(F)F)c3)ccc2=O)c1` [Example 253, N-[(1R)-1-[3-amino-5-(trifluoromethyl)phenyl]ethyl]-1-[3-(methylcarbamoyl)phenyl]-6-oxo-pyridazine-3-carboxamide], the pIC50 was above 6.00.

`C[C@@H](NC(=O)c1ccc(=O)n(-c2cccc(C(=O)N3CCOCC3)c2)n1)c1cc(N)cc(C(F)(F)F)c1` [Example 254, N-[(1R)-1-[3-amino-5-(trifluoromethyl)phenyl]ethyl]-1-[3-(morpholine-4-carbonyl)phenyl]-6-oxo-pyridazine-3-carboxamide] gave a negative logarithm of the IC50 (pIC50) above 6.00.

With `C[C@@H](NC(=O)c1ccc(=O)n(-c2cccc(C(=O)N3CCN(C)CC3)c2)n1)c1cc(N)cc(C(F)(F)F)c1` [Example 255, N-[(1R)-1-[3-amino-5-(trifluoromethyl)phenyl]ethyl]-1-[3-(4-methylpiperazine-1-carbonyl)phenyl]-6-oxo-pyridazine-3-carboxamide], the pIC50 is above 6.00.

Molecule `CNCC(F)(F)c1cccc([C@@H](C)NC(=O)c2ccc(=O)n(-c3ccccc3F)n2)c1F` [Example 256, N-[(1R)-1-[3-[1,1-difluoro-2-(methylamino)ethyl]-2-fluorophenyl]ethyl]-1-(2-fluorophenyl)-6-oxo-pyridazine-3-carboxamide] had a pIC50 above 6.00.

Consider `C[C@@H](NC(=O)c1ccc(=O)n(-c2ccccc2F)n1)c1cccc(C(F)(F)CN(C)C)c1F` [Example 257, N-[(1R)-1-[3-[2-(dimethylamino)-1,1-difluoro-ethyl]-2-fluorophenyl]ethyl]-1-(2-fluorophenyl)-6-oxo-pyridazine-3-carboxamide], for which the pIC50 is above 6.00.

`C[C@@H](NC(=O)c1ccc(=O)n(-c2ccccc2F)n1)c1cccc(C(F)(F)CN(C)C)c1` [Example 258, N-[(1R)-1-[3-[2-(dimethylamino)-1,1-difluoro-ethyl]phenyl]ethyl]-1-(2-fluorophenyl)-6-oxo-pyridazine-3-carboxamide] gave a negative-log IC50 (pIC50) above 6.00.
